The target in test [1] is T1, human 17α-hydroxylase/C17,20-lyase (Homo sapiens, UniProt P05093).
T1 construct: incubating human testicular microsomes; from tissue; host or cells: human testis, microsomes
T1 sequence (P05093 1-508): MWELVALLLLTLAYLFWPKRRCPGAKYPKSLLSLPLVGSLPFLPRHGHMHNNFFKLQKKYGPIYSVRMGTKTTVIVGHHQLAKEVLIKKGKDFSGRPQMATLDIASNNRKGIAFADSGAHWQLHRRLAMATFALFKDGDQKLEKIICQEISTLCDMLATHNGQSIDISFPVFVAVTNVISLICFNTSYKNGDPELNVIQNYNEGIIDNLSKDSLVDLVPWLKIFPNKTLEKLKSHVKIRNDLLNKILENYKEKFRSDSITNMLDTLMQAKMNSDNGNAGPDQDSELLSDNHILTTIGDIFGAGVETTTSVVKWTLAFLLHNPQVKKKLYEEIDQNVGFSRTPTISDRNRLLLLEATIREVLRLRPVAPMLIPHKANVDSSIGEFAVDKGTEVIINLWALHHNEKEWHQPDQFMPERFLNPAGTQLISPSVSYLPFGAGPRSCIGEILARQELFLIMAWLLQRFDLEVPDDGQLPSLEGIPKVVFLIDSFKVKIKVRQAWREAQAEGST
Nature of the test: Inhibition of human testicular 17α-hydroxylase/C17,20-lyase (enzyme complex as a whole). The test is classed as biochemical. Conditions: NI = no inhibition. How it is done: (§1) The conversion of radiolabeled pregnenolone to 17α-hydroxypregnenolone and DHEA by 17α-hydroxylase/C17,20 -lyase was measured by incubating human testicular microsomes with different concentration of test compounds. Reverse phase HPLC was used to separate and accurately quantify the amount of substrate and metabolites. The 17α-hydroxylase and C17,20 -lyase activities were calculated separately. The activity of 17α-hydroxylase was calculated from the conversion of pregnenolone to 17α-hydroxypregnenolone and DHEA and the activity of C17,20 -lyase was based on the conversion of pregnenolone to DHEA. Although 17α-hydroxypregnenolone is the substrate converted to DHEA by C17,20 -lyase, it has been reported that this 17α-hydroxy intermediate is not released from the enzyme binding site during conversion (Nakajin et al., 1981a,b). Also, there are species differences in substrate requirements. Pregnenolone is the natural substrate rather than progesterone for human testicular 17α-hydroxylase and C17,20 -lyase. Therefore, pregnenolone was used as substrate for measuring the activity of this enzyme complex.

The target of test [2] is T2, Human Testicular 17α-Hydroxylase (Homo sapiens, UniProt P05093).
T2 construct: incubating human testicular microsomes; from tissue; host or cells: human testis, microsomes
T2 sequence (P05093 1-508): T1 sequence (P05093 1-508)
The test is described as follows: Inhibition of human testicular 17α-hydroxylase (pregnenolone substrate, testicular microsomes). Format: biochemical. Conditions: for inhibition at 0.1 µM: read-out: % Inhibition 17α-hydroxylase, [I] = 100 nM; for inhibition at 0.4 µM: read-out: % Inhibition 17α-hydroxylase, [I] = 400 nM. As for the experimental part: as §1

Test [3] concerns the target T3, Human Testicular C17,20-lyase (Homo sapiens, UniProt P05093).
T3 construct: incubating human testicular microsomes; from tissue; host or cells: human testis, microsomes
T3 sequence (P05093 1-508): T1 sequence (P05093 1-508)
The test is described as follows: Inhibition of human testicular C17,20-lyase (pregnenolone substrate, testicular microsomes). Format: biochemical. Particulars: for inhibition at 0.1 µM: read-out: % Inhibition C17,20-lyase, [I] = 100 nM; for inhibition at 0.4 µM: read-out: % Inhibition C17,20-lyase, [I] = 400 nM. As for the experimental part:
as §1

Test [4] concerns the target T4, Human Prostatic 5α-Reductase (Homo sapiens, UniProt P31213).
T4 sequence (P31213 1-254): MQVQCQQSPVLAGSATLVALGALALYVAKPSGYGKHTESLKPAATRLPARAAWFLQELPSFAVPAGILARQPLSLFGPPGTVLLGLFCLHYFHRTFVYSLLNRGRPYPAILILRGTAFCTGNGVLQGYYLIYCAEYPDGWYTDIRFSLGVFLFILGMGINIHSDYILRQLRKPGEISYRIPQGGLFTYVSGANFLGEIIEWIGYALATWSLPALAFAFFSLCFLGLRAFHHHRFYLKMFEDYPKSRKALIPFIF
Nature of the test: Inhibition of human prostatic 5α-reductase (prostatic microsomes, [3H]testosterone). Particulars: for inhibition at 0.01 µM: read-out: % Inhibition of 5α-reductase, [I] 10 nM; for inhibition at 0.1 µM: read-out: % Inhibition of 5α-reductase, [I] 100 nM; for inhibition at 0.4 µM: read-out: % Inhibition of 5α-reductase, [I] 400 nM.

[5] abbreviates: Table 1, NI = no inhibition, read-out: IC50 17α-OHase.
Setting [6] is: Table 1, NI = no inhibition, CI = complete inhibition, read-out: IC50 C17,20 lyase.
Setting [7] is: first figure of pair, read-out: IC50 17α-hydroxylase.
[8] abbreviates: second figure of pair, read-out: IC50 C17,20-lyase.

Structures are written as SMILES. Read-outs that look alike come from different tables or passages of the source.

As a reminder, the IC50 is the concentration at which inhibition is half-maximal. The term inhibition denotes the change of the read-out against control, counted positive when it falls.

Take `CC(=NO)[C@H]1CC[C@H]2[C@@H]3CC=C4C[C@@H](O)CC[C@]4(C)[C@H]3CC[C@]12C` [Compound I-1]: the “inhibition of 17α-hydroxylase/C17,20-lyase (in words)” value in test [1] is listed as “potent inhibition”.
With `C[C@@H](N)[C@H]1CC[C@H]2[C@@H]3CC=C4C[C@@H](O)CC[C@]4(C)[C@H]3CC[C@]12C` [Compound I-9], in test [1], the “inhibition of 17α-hydroxylase/C17,20-lyase (in words)” value was “poor inhibition”. Also, the results for the IC50 in test [2] (setting [5]) and in test [3] (setting [6]) were 89800 nM and 43900 nM, respectively.
Consider `CC(=NN)[C@H]1CC[C@H]2[C@@H]3CC=C4C[C@@H](O)CC[C@]4(C)[C@H]3CC[C@]12C` [Compound I-12], for which, in test [1], the “inhibition of 17α-hydroxylase/C17,20-lyase (in words)” value is “poor inhibition”.
On the same count and under the same terms, the entry for `CC(=NN(C)C)C1=CC[C@H]2[C@@H]3CC=C4C[C@@H](O)CC[C@]4(C)[C@H]3CC[C@]12C` [Compound I-14] is “devoid of inhibitory activity”.
For `C[C@H](C=NN(C)C)[C@H]1CC[C@H]2[C@@H]3CCC4=CC(=O)CC[C@]4(C)[C@H]3CC[C@]12C` [Compound I-15], the “inhibition of 17α-hydroxylase/C17,20-lyase (in words)” value in test [1] was “devoid of inhibitory activity”. In test [4], the inhibition at 0.01 µM amounted to 16.4% and the inhibition at 0.1 µM amounted to 74.9%.
As for `CC(=O)[C@@]12O[C@@H]1C[C@H]1[C@@H]3CCC4=CC(=O)CC[C@]4(C)[C@H]3CC[C@@]12C` [Compound I-18], the IC50 in test [2] (setting [5]) came to 480 nM. In test [4], the inhibition at 0.01 µM is 15.1% and the inhibition at 0.1 µM was 76.2%. For the same compound, the half-inhibitory concentration (IC50) in test [3] (setting [6]) stood at 800 nM.
For `C[C@H](O)[C@H]1CC[C@H]2[C@@H]3CC=C4C[C@@H](O)CC[C@]4(C)[C@H]3CC[C@]12C` [Compound I-19], the IC50 in test [2] (IC50 17α-OHase) came to 720 nM; in test [3] (IC50 C17,20 lyase), 510 nM. The “inhibition of 5α-reductase (in words)” value in test [4] (NI = no inhibition) is on record as “neither showed activity against 5α-reductase”.
`CC(C#N)=C1CC[C@H]2[C@@H]3CCC4=CC(=O)CC[C@]4(C)[C@H]3CC[C@]12C` [Compound I-26]: the “inhibition of 17α-hydroxylase/C17,20-lyase (in words)” value in test [1] is “did not contribute to inhibition”. In addition, in test [4], the inhibition at 0.01 µM came out at 5.21% and the inhibition at 0.1 µM was 71.8%.
For the compound `C[C@H](C=O)[C@H]1CC[C@H]2[C@@H]3CC=C4C[C@@H](O)CC[C@]4(C)[C@H]3CC[C@]12C` [Compound I-31], the IC50 in test [2] (setting [5]) and in test [3] (setting [6]) was 80 nM in each case.
Regarding `C[C@H](C#N)[C@H]1CC[C@H]2[C@@H]3CCC4=CC(=O)CC[C@]4(C)[C@H]3CC[C@]12C` [Compound I-32], in test [4], the inhibition at 0.01 µM amounted to 21% and the inhibition at 0.1 µM worked out at 79.2%.
With `CN(C=O)[C@H]1CC[C@H]2[C@@H]3CC=C4C[C@@H](O)CC[C@]4(C)[C@H]3CC[C@]12C` [Compound I-39], the 50% inhibitory concentration (IC50) in test [2] (setting [5]) is 290 nM; in test [3] (setting [6]) it was 280 nM.
Take `C[C@]12CCC(=O)C=C1CC[C@@H]1[C@@H]2CC[C@@]2(C)[C@H]1CC[C@]2(O)c1c[nH]cn1` [Compound I-44]: the IC50 in test [2] (setting [5]) is 1200 nM; in test [2] (setting [7]), 1200 nM; in test [3] (setting [6]) it was 1000 nM; in test [3] (setting [8]) it was 1000 nM.
Take `C[C@]12CC[C@H](O)CC1=CC[C@@H]1[C@@H]2CC[C@@]2(C)[C@H]1C[C@H]1O[C@]12c1c[nH]cn1` [Compound I-51]: the half-maximal inhibitory concentration (IC50) in test [2] (setting [5]) was determined as 430 nM; in test [2] (setting [7]), 431 nM; in test [3] (setting [6]), 100 nM; in test [3] (setting [8]), 98 nM.
On to `CCOC(=O)C1=CC[C@H]2[C@@H]3CC=C4C[C@@H](O)CC[C@]4(C)[C@H]3CC[C@]12C` [Compound I-53], for which the half-maximal inhibitory concentration (IC50) in test [2] (setting [5]) turned out to be 3040 nM; in test [3] (setting [6]) it was 2450 nM.
As for `CN(C)N=C1CC[C@H]2[C@@H]3CC=C4C[C@@H](O)CC[C@]4(C)[C@H]3CC[C@]12C` [Compound I-56], the values for the IC50 in test [2] (setting [5]) and in test [3] (setting [6]) were 4200 nM and 2400 nM, respectively.
As to `C[C@]12CC[C@H]3[C@@H](CCC4=CC(=O)CC[C@@]43C)[C@@H]1CC[C@@H]2c1ncc[nH]1` [Compound L-3], the inhibition at 0.1 µM is 20.3% in test [2] (100 nM, first figure of pair); 31.7% in test [4]; 62.9% in test [3] (100 nM, second figure of pair). Further, the inhibition at 0.4 µM in test [2] (400 nM, first figure of pair) was 43.5%; in test [4], 61.7%; in test [3] (400 nM, second figure of pair), 100%.
For the compound `C[C@]12CC[C@H]3[C@@H](CC=C4C[C@@H](O)CC[C@@]43C)[C@@H]1CC[C@@H]2c1c[nH]c(-c2ccccc2)n1` [Compound L-7], the inhibition at 0.1 µM in test [2] (100 nM, first figure of pair) was found to be 10.3%; in test [3] (100 nM, second figure of pair), 9.5%. For the same compound, the inhibition at 0.4 µM amounted to 20.9% in test [2] (400 nM, first figure of pair) and 33.8% in test [3] (400 nM, second figure of pair).
For `C[C@H](O)C1=CC[C@H]2[C@@H]3CC=C4C[C@@H](O)CC[C@]4(C)[C@H]3CC[C@]12C` [Compound L-9], in test [1], the “inhibition of 17α-hydroxylase/C17,20-lyase (in words)” value was “less active”. Besides, the inhibition at 0.01 µM in test [4] was 33.2%.
In the case of `C=C1CC2C3CCC(OC(C)=O)C3(C)CCC2C2(C)CCC(=O)CC12` [Compound L-14, 17β-Acetoxy-6-methylene-5α-androst-3-one], in test [4], the inhibition at 0.1 µM was 5.77% and the inhibition at 0.4 µM was determined as 11.4%.
As for `C[C@]12CC[C@H]3[C@@H](CC[C@]45CC(=O)C=C[C@]34C5)[C@@H]1CCC2=O` [Compound L-15, 5,19β-cycloandrost-1-ene-3,17-dione], the inhibition at 0.1 µM was determined as 7.25% in test [2] (100 nM, first figure of pair); 23.3% in test [4]; 28.8% in test [3] (100 nM, second figure of pair). Further, the inhibition at 0.4 µM in test [4] is 60.9%.
Take `C[C@]12CC[C@H]3[C@@H](CC[C@]45CC(=O)CC[C@]34[C@H]5O)[C@@H]1CC[C@@H]2O` [Compound L-19, 17β,19(S)-dihydroxy 5,19β-cycloandrost-3-one]: in test [4], the inhibition at 0.1 µM is 8.7% and the inhibition at 0.4 µM was determined as 14.8%.
For `C[C@]12CC[C@H]3[C@@H](CC[C@]45CC(=O)CC[C@]34[C@@H]5O)[C@@H]1CCC2=O` [Compound L-20, 19(R)-Hydroxy-5,19β-cyclo-androst-3,17-dione] the same measures were 5.89% and 12.2%.
Regarding `CC1N[C@@]12CC[C@H]1[C@@H]3CC=C4C[C@@H](O)CC[C@]4(C)[C@H]3CC[C@@]12C` (stereo partly drawn) [Compound L-21], the inhibition at 0.1 µM in test [2] came out at 8.47%; in test [3], 29.1%. Also, the inhibition at 0.4 µM is 23.7% in test [2] and 52% in test [3].
The matching figures for `CC1N[C@]12CC[C@H]1[C@@H]3CC=C4C[C@@H](O)CC[C@]4(C)[C@H]3CC[C@@]12C` (stereo partly drawn) [Compound L-22]: 0%, 3.33%, 0% and 9.99%.
For the compound `CO[C@@H]1[C@]23CC[C@@H]4[C@H](CC[C@]5(C)C(=O)CC[C@@H]45)[C@]12CCC(=O)[C@H]3C` [Compound L-23, 4α-methyl-19-(S)-methoxy-5,19β-cycloandrost-3,17-dione], in test [4], the inhibition at 0.1 µM was 0% and the inhibition at 0.4 µM amounted to 16.1%.
The matching figures for `C[C@]12CC[C@H]3[C@@H](CCC4=CC(=O)CC[C@@]43CBr)[C@@H]1CCC2=O` [Compound L-24, 19-Bromo-androst-4-ene-3,17-dione]: 12.3% and 52.7%.

These data come from patent US5994334A, “Androgen synthesis inhibitors” (priority 1997, dated 1999).
